The values below come from patent US9629834B2, “Medicinal composition for inhibiting formation and/or enlargement of cerebral aneurysm or shrinking same” (KYOTO UNIVERSITY, priority 2013, dated 2017).

In experiment [1] the test system is macrophages (F4/80-positive cells). Put plainly: Infiltration of macrophages into cerebral aneurysm formation site (F4/80 immunostaining). The experiment is classed as in vivo, SD rat. Conditions: Day 1 to Day 27, Day 28, vs vehicle group, FIG. 3B. Here is the method:
A rat model of cerebral aneurysm was prepared according to the method disclosed on the literature by Hashimoto et al. (Surgical Neurology 1978, Vol. 10, p. 3-8). Namely, 50 mg/kg of pentobarbital was administrated intraperitoneally to a 7-week-old male SD rat, and the left common carotid artery and the left renal artery were ligated by using 10-0 nylon thread under anesthesia (this is referred to as the surgery for inducing cerebral aneurysm). From the day after surgery (Day 1), the rat was reared with being fed a high-salt diet. During a rearing period, the rat was given free access to water. Forced oral administration of 0.03 mg/5 mL or 0.1 mg/5 mL of the suspension of Compound 1 to the cerebral aneurysm model was conducted once a day at a dose of 5 mL/kg from 1 day after surgery (Day 1) to 27 days after surgery (Day 27). 28 Days after surgery (Day 28), the treatments on the right olfactory artery/anterior cerebral artery bifurcation containing cerebral aneurysm were conducted by using similar procedures to the steps 1) to 5) of Reference Example 2, and a section of the bifurcation was prepared. […] Under the observation with a confocal microscope, the number of macrophages was counted in an area of 100 μm square centered around the cerebrovascular bifurcation where cerebral aneurysm developed. The measurement was conducted on five rats and the mean value was calculated. […]

Another experiment deals with macrophages. Put plainly: Macrophages infiltrating cerebral aneurysm walls in the enlargement study. It counts as in vivo, SD rat. Conditions: 0.1 mg/5 mL suspension, forced oral, once a day from Day 7; 49 days after surgery (Week 7); FIG. 10. As to the method:
Immunostaining of macrophages (F4/80-positive cells) was conducted on the prepared section as described below. As a primary antibody solution, a solution in which a rat anti-F4/80 antibody [BM8](AB16911: Abcam) was diluted with a phosphate buffer by 100 times was prepared. As a secondary antibody solution, a solution in which an alexa 488-conjugated donkey anti-rat IgG antibody (Invitrogen) was diluted with a phosphate buffer by 100 times was prepared. The section was allowed to react in the primary antibody solution at 4° C. for 16 hours, washed with a phosphate buffer, and thereafter, was allowed to react in the secondary antibody solution at room temperature for 1 hour. […] In addition, macrophages (F4/80-positive cells) stained green at the peripheries of nuclei (blue) were observed therein (in monochrome FIG. 3A, portions with a higher degree of whiteness). Under the observation with a confocal microscope, the number of macrophages was counted in an area of 100 μm square centered around the cerebrovascular bifurcation where cerebral aneurysm developed. The measurement was conducted on five rats and the mean value was calculated. […] In addition, 49 days after surgery (Week 7), the number of macrophages infiltrating cerebral aneurysm walls was counted according to the procedure of Reference Example 4 under the observation with a confocal microscope.

Take `C[C@H](Oc1ccc(-c2nc(-c3ccc4[nH]cnc4c3)no2)cc1C(F)(F)F)C(F)(F)F.Cl` [Compound 1, 5-{5-[3-(trifluoromethyl)-4-{[(2S)-1,1,1-trifluoropropan-2-yl]oxy}phenyl]-1,2,4-oxadiazol-3-yl}-1H-benzimidazole hydrochloride]: the “number of macrophages at the cerebral aneurysm formation site” value in experiment [1] (0.03 mg/kg oral once a day) and in experiment [1] (0.1 mg/kg oral once a day) was “decreased as compared to the number of macrophages in the vehicle group” throughout. The “number of macrophages infiltrating cerebral aneurysm walls” value with macrophages was “decreased the number of macrophages at the site where cerebral aneurysm was induced”.
